Results: publication PMC5570656 (Journal of medicinal chemistry, 2017)
Structures can show the parent of a compound that is named as a salt.

Legend:
nNOS = nNOS (Homo sapiens, UniProt P29475); assay: Stability of stored compound solutions; assay type: physicochemical; settings: solutions stored for longer periods of time (ca. one week)
[1] = mice, in words, earlier work; cited from earlier work
murine macrophage iNOS = murine macrophage iNOS (Mus musculus, UniProt P29477); settings: ratio of respective Ki values
Sequence of murine macrophage iNOS (P29477 whole entry): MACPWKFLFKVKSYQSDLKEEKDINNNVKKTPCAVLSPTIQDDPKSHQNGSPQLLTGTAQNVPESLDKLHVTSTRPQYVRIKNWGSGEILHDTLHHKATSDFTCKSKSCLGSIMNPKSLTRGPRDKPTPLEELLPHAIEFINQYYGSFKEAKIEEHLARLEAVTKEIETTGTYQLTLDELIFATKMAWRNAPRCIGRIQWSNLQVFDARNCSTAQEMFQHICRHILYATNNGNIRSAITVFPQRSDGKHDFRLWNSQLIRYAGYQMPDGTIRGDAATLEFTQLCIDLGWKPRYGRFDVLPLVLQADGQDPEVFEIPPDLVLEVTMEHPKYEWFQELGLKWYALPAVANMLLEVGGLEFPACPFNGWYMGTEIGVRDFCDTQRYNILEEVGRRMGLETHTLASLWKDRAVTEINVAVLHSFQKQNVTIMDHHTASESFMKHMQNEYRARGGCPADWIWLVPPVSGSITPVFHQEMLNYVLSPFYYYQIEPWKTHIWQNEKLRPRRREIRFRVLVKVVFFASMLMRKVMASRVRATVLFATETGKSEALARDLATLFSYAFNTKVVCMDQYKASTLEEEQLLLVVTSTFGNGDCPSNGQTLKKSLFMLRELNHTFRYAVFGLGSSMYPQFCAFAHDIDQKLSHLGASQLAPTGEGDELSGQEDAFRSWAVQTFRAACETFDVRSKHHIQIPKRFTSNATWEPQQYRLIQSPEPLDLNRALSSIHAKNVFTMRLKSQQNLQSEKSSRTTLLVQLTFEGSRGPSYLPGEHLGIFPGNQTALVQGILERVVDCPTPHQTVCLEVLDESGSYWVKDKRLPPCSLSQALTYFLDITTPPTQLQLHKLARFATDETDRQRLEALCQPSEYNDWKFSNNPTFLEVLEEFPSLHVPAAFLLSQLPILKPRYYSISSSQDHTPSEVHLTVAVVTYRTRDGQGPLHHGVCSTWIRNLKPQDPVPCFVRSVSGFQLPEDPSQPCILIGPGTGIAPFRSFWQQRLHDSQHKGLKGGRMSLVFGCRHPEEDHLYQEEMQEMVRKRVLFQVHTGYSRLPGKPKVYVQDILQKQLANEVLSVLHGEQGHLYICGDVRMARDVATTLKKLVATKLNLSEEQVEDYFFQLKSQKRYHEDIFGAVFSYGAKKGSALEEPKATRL

bovine eNOS = bovine eNOS (Bos taurus, UniProt P29473); settings: ratio of respective Ki values
Sequence of bovine eNOS (P29473 whole entry): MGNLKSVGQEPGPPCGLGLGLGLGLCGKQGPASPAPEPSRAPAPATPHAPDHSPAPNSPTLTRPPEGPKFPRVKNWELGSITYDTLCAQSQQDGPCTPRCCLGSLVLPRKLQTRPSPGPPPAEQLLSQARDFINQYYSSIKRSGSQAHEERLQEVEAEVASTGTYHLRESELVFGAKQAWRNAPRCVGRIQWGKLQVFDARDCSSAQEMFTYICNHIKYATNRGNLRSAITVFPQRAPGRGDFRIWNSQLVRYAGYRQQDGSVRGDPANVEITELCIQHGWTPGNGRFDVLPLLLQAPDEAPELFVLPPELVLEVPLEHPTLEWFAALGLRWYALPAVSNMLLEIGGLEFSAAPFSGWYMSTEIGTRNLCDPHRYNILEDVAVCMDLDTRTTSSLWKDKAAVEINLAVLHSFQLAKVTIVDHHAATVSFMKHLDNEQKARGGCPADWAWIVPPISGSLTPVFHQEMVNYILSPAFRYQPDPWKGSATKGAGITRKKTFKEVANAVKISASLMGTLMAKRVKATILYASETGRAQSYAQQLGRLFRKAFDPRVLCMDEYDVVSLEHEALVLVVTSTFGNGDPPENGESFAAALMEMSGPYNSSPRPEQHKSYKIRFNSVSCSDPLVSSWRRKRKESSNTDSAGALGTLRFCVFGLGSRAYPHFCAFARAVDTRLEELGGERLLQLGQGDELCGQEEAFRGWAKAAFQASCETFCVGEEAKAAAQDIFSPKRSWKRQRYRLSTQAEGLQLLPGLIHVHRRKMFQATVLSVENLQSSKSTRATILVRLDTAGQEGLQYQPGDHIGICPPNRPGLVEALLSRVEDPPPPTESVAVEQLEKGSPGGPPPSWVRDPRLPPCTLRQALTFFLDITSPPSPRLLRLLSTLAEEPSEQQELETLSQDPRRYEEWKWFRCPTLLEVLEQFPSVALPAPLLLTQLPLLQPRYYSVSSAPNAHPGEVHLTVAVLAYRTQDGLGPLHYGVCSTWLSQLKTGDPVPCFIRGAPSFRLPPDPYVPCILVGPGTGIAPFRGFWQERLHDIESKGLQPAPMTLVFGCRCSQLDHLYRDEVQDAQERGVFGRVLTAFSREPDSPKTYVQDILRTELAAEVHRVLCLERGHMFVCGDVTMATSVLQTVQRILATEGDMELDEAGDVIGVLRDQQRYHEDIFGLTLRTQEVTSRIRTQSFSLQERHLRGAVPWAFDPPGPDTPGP

[2] = system: 45 different CNS targets and receptors; settings: of 45 targets, cited from earlier work
Caco-2 = settings: in words, previously designed inhibitors; cited from earlier work
[3] = rats, in words, earlier work; cited from earlier work
[4] = in words

Sequence of nNOS (P29475 whole entry): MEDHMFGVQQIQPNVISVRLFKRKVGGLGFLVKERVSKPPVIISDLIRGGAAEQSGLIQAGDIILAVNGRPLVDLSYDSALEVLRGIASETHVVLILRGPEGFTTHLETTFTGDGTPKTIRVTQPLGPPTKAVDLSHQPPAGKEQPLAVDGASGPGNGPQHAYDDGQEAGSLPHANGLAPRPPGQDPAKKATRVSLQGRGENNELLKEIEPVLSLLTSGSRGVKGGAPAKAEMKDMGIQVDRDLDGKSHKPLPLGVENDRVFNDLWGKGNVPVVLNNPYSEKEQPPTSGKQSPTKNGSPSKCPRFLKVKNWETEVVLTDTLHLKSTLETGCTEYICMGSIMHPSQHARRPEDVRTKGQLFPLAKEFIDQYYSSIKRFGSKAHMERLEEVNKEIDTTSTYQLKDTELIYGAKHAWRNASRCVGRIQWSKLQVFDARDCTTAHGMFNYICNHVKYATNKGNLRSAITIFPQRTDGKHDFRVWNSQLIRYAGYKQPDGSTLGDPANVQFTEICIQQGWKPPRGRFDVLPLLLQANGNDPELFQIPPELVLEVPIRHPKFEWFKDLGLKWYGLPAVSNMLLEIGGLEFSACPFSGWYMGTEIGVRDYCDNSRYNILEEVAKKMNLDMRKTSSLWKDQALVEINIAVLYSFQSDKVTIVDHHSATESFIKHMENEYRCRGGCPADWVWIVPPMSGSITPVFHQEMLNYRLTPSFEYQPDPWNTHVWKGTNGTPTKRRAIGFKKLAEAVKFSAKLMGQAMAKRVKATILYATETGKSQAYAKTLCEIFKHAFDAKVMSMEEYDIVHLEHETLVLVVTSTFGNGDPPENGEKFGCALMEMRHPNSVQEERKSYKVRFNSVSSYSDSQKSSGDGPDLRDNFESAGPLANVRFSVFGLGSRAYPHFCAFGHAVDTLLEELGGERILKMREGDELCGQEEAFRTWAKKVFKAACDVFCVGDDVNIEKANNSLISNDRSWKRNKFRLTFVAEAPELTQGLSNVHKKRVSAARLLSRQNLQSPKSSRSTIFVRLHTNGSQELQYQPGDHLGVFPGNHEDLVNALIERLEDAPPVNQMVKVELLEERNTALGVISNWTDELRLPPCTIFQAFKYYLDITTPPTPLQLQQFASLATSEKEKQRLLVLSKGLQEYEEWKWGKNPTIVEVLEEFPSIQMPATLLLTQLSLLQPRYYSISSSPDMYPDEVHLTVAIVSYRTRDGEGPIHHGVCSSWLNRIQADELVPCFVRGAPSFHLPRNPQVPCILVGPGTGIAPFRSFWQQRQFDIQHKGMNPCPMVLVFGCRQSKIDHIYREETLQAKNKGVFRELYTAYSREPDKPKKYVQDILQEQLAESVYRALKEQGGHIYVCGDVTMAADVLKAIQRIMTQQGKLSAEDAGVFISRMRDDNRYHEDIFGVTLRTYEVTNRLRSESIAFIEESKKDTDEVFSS

SMILES: CN(C)c1cccc(CCNCc2ccc3ccc(N)nc3c2)c1 [Compound 14, 3-(Dimethylamino)phenethyl)amino)methyl)quinolin-2-amine Trihydrochloride]
- stability of solutions (nNOS): lost their nNOS inhibitory activity

SMILES: Nc1ccc2ccc(CCNCCc3cccc(F)c3)cc2n1 [Compound 4]
- oral bioavailability [1]: good

SMILES: CN(C)c1cccc(CNCc2ccc3ccc(N)nc3c2)c1 [Compound 12, 7-(((3-(Dimethylamino)benzyl)amino)methyl)quinolin-2-amine Trihydrochloride]
- Selectivity rn/mi (murine macrophage iNOS): 71
- Selectivity rn/be (bovine eNOS): 16

SMILES: CNCc1cc(OCc2ccc3ccc(N)nc3c2)ccc1Cl [Compound 6]
- PDSP number of targets classified Moderate ([2]; 100-300 nM): 3
- PDSP number of targets classified Insignificant ([2]; <50% bound at 10 μM): 22
- PDSP number of targets classified Weak ([2]; >300 nM): 17
- PDSP number of targets classified Concerning ([2]; Ki <100 nM): 3
- Caco-2 permeability (Caco-2): poor

SMILES: Nc1ccc2ccc(CCNCCc3cccc(Cl)c3)cc2n1 [Compound 5]
- brain penetration [3]: brain penetration

SMILES: N#Cc1cccc(NCc2ccc3ccc(N)nc3c2)c1 [Compound 7, 3-(((2-Aminoquinolin-7-yl)methyl)amino)benzonitrile Dihydrochloride]
- solubility [4]: poor
